Assay results taken from ChEMBL document CHEMBL3259797, “Radiosyntheses and in vivo evaluation of carbon-11 PET tracers for PDE10A in the brain of rodent and nonhuman primate” (Bioorg Med Chem, 2014).

Legend:
Lung [1] = experiment: Biodistribution in Sprague-Dawley rat lung at 14.8 to 18.5 MBq, iv measured at 30 mins post-injection by gamma counting analysis; type: ADME, organism-based; details: in vivo, 0.5 h
Liver [2] = experiment: Biodistribution in Sprague-Dawley rat liver at 14.8 to 18.5 MBq, iv measured at 60 mins post-injection by gamma counting analysis; type: ADME, organism-based; details: in vivo, 1 h
Cerebellum [3] = experiment: Biodistribution in Sprague-Dawley rat cerebellum at 14.8 to 18.5 MBq, iv measured at 60 mins post-injection by gamma counting analysis; type: ADME, organism-based; details: in vivo, 1 h
Striatum [4] = experiment: Biodistribution in Sprague-Dawley rat striatum at 14.8 to 18.5 MBq, iv measured at 30 mins post-injection by gamma counting analysis; type: ADME, organism-based; details: in vivo, 0.5 h
Muscle tissue [5] = experiment: Biodistribution in Sprague-Dawley rat muscle at 14.8 to 18.5 MBq, iv treated with MP-10 for 5 mins prior to compound administration measured at 30 mins post-injection by gamma counting analysis; type: ADME, organism-based; details: in vivo, 0.5 h
Liver [6] = experiment: Biodistribution in Sprague-Dawley rat liver at 14.8 to 18.5 MBq, iv measured at 30 mins post-injection by gamma counting analysis; type: ADME, organism-based; details: in vivo, 0.5 h
Liver [7] = experiment: Biodistribution in Sprague-Dawley rat liver at 14.8 to 18.5 MBq, iv measured at 5 mins post-injection by gamma counting analysis; type: ADME, organism-based; details: in vivo
Plasma [8] = experiment: Metabolic stability in iv dosed cynomolgus monkey plasma protein pellet under deproteinated condition assessed as compound remaining measured at 5 to 60 mins by HPLC analysis; type: ADME, organism-based, Macaca fascicularis; details: in vivo
Brain = experiment: Biodistribution in Sprague-Dawley rat brain at 14.8 to 18.5 MBq, iv treated with MP-10 for 5 mins prior to compound administration measured at 30 mins post-injection by gamma counting analysis; type: ADME, organism-based; details: in vivo, 0.5 h
[9] = Biodistribution in cynomolgus monkey hippocampus at 260 to 370 MBq, iv measured at 20 to 100 mins post-injection by microPET analysis; type: ADME, organism-based, Macaca fascicularis; details: in vivo
Cerebellum [10] = experiment: Biodistribution in Sprague-Dawley rat cerebellum at 14.8 to 18.5 MBq, iv measured at 30 mins post-injection by gamma counting analysis; type: ADME, organism-based; details: in vivo, 0.5 h
Heart [11] = experiment: Biodistribution in Sprague-Dawley rat heart at 14.8 to 18.5 MBq, iv treated with MP-10 for 5 mins prior to compound administration measured at 30 mins post-injection by gamma counting analysis; type: ADME, organism-based; details: in vivo, 0.5 h
Plasma [12] = experiment: Drug metabolism in iv dosed cynomolgus monkey plasma assessed as retention time of hydrophilic metabolite by HPLC analysis; type: ADME, organism-based, Macaca fascicularis; details: in vivo
[13] = Biodistribution in cynomolgus monkey white matter at 260 to 370 MBq, iv measured at 20 to 100 mins post-injection by microPET analysis; type: ADME, organism-based, Macaca fascicularis; details: in vivo
Striatum [14] = experiment: Biodistribution in Sprague-Dawley rat striatum at 14.8 to 18.5 MBq, iv measured at 5 mins post-injection by gamma counting analysis; type: ADME, organism-based; details: in vivo
Rattus norvegicus [15] = experiment: Biodistribution in Sprague-Dawley rat fat at 14.8 to 18.5 MBq, iv treated with MP-10 for 5 mins prior to compound administration measured at 30 mins post-injection by gamma counting analysis; type: ADME, organism-based, Adipose tissue; details: in vivo, 0.5 h
Heart [16] = experiment: Biodistribution in Sprague-Dawley rat heart at 14.8 to 18.5 MBq, iv measured at 60 mins post-injection by gamma counting analysis; type: ADME, organism-based; details: in vivo, 1 h
Occipital cortex = experiment: Biodistribution in cynomolgus monkey occipital cortex at 260 to 370 MBq, iv measured at 20 to 100 mins post-injection by microPET analysis; type: ADME, organism-based, Macaca fascicularis; details: in vivo
Kidney [17] = experiment: Biodistribution in Sprague-Dawley rat kidney at 14.8 to 18.5 MBq, iv measured at 5 mins post-injection by gamma counting analysis; type: ADME, organism-based; details: in vivo
Liver [18] = experiment: Biodistribution in Sprague-Dawley rat liver at 14.8 to 18.5 MBq, iv treated with MP-10 for 5 mins prior to compound administration measured at 30 mins post-injection by gamma counting analysis; type: ADME, organism-based; details: in vivo, 0.5 h
Heart [19] = experiment: Biodistribution in Sprague-Dawley rat heart at 14.8 to 18.5 MBq, iv measured at 5 mins post-injection by gamma counting analysis; type: ADME, organism-based; details: in vivo
Blood [20] = experiment: Biodistribution in Sprague-Dawley rat blood at 14.8 to 18.5 MBq, iv treated with MP-10 for 5 mins prior to compound administration measured at 30 mins post-injection by gamma counting analysis; type: ADME, organism-based; details: in vivo, 0.5 h
Rattus norvegicus [21] = experiment: Biodistribution in Sprague-Dawley rat fat at 14.8 to 18.5 MBq, iv measured at 30 mins post-injection by gamma counting analysis; type: ADME, organism-based, Adipose tissue; details: in vivo, 0.5 h
Rattus norvegicus [22] = experiment: Biodistribution in Sprague-Dawley rat fat at 14.8 to 18.5 MBq, iv measured at 60 mins post-injection by gamma counting analysis; type: ADME, organism-based, Adipose tissue; details: in vivo, 1 h
Muscle tissue [23] = experiment: Biodistribution in Sprague-Dawley rat muscle at 14.8 to 18.5 MBq, iv measured at 60 mins post-injection by gamma counting analysis; type: ADME, organism-based; details: in vivo, 1 h
[24] = Metabolic stability in iv dosed cynomolgus monkey RBC assessed as compound remaining measured at 5 to 60 mins by HPLC analysis; type: ADME, organism-based, Macaca fascicularis, Erythrocyte; details: in vivo
Plasma [25] = experiment: Drug metabolism in iv dosed cynomolgus monkey plasma assessed as retention time by HPLC analysis; type: ADME, organism-based, Macaca fascicularis; details: in vivo
Plasma [26] = experiment: Metabolic stability in iv dosed cynomolgus monkey plasma assessed as compound remaining measured at 5 to 60 mins by HPLC analysis; type: ADME, organism-based, Macaca fascicularis; details: in vivo
Heart [27] = experiment: Biodistribution in Sprague-Dawley rat heart at 14.8 to 18.5 MBq, iv measured at 30 mins post-injection by gamma counting analysis; type: ADME, organism-based; details: in vivo, 0.5 h
[28] = Biodistribution in cynomolgus monkey cerebellum at 260 to 370 MBq, iv measured at 20 to 100 mins post-injection by microPET analysis; type: ADME, organism-based, Macaca fascicularis; details: in vivo
[29] = Drug metabolism in iv dosed cynomolgus monkey plasma assessed as compound remaining measured at 15 mins post-injection by HPLC analysis; type: ADME, organism-based, Macaca fascicularis; details: read-out: Stability
Rattus norvegicus [30] = experiment: Biodistribution in Sprague-Dawley rat fat at 14.8 to 18.5 MBq, iv measured at 5 mins post-injection by gamma counting analysis; type: ADME, organism-based, Adipose tissue; details: in vivo
Blood [31] = experiment: Biodistribution in Sprague-Dawley rat blood at 14.8 to 18.5 MBq, iv measured at 5 mins post-injection by gamma counting analysis; type: ADME, organism-based; details: in vivo
Nucleic Acid = experiment: Ratio of drug level in striatum to cerebellum in Sprague-Dawley rat at 14.8 to 18.5 MBq, iv measured at 30 mins post-injection by gamma counting analysis; type: ADME, organism-based; details: in vivo, 0.5 h
Kidney [32] = experiment: Biodistribution in Sprague-Dawley rat kidney at 14.8 to 18.5 MBq, iv measured at 60 mins post-injection by gamma counting analysis; type: ADME, organism-based; details: in vivo, 1 h
Frontal cortex = experiment: Biodistribution in cynomolgus monkey frontal cortex at 260 to 370 MBq, iv measured at 20 to 100 mins post-injection by microPET analysis; type: ADME, organism-based, Macaca fascicularis; details: in vivo
Muscle tissue [33] = experiment: Biodistribution in Sprague-Dawley rat muscle at 14.8 to 18.5 MBq, iv measured at 5 mins post-injection by gamma counting analysis; type: ADME, organism-based; details: in vivo
Blood [34] = experiment: Biodistribution in Sprague-Dawley rat blood at 14.8 to 18.5 MBq, iv measured at 60 mins post-injection by gamma counting analysis; type: ADME, organism-based; details: in vivo, 1 h
Lung [35] = experiment: Biodistribution in Sprague-Dawley rat lung at 14.8 to 18.5 MBq, iv measured at 60 mins post-injection by gamma counting analysis; type: ADME, organism-based; details: in vivo, 1 h

SMILES | Drug uptake (Lung [1]) | Drug uptake (Liver [2]) | Drug uptake (Cerebellum [3]) | Drug uptake (Striatum [4]) | Drug uptake (Muscle tissue [5]) | Drug uptake (Liver [6]) | Drug uptake (Liver [7]) | Stability (Plasma [8]) | Drug uptake (Brain) | Drug uptake [9] | Drug uptake (Cerebellum [10]) | Drug uptake (Heart [11]) | Retention_time (Plasma [12]) | Drug uptake [13] | Drug uptake (Striatum [14]) | Drug uptake (Rattus norvegicus [15]) | Drug uptake (Heart [16]) | Drug uptake (Occipital cortex) | Drug uptake (Kidney [17]) | Drug uptake (Liver [18]) | also measured
Cn1cc(-c2ccncc2)c(-c2ccc(OCc3cc(O[11CH3])c4ccccc4n3)cc2)n1 | 0.233 % ID/g | 8.941 % ID/g | 0.046 % ID/g | 0.23 % ID/g | 0.224 % ID/g | 10.085 % ID/g | 7.08 % ID/g | 5% | 0.114 % ID/g | Active | 0.066 % ID/g | 0.31 % ID/g | 3 min | Active | 0.352 % ID/g | 0.697 % ID/g | 0.121 % ID/g | Active | 2.34 % ID/g | 4.723 % ID/g | Drug uptake (Heart [19]): 0.464 % ID/g; Drug uptake (Blood [20]): 0.343 % ID/g; Drug uptake (Rattus norvegicus [21]): 0.371 % ID/g; Drug uptake (Rattus norvegicus [22]): 0.278 % ID/g; Drug uptake (Muscle tissue [23]): 0.084 % ID/g; Stability [24]: 25%; Retention_time (Plasma [25]): 9 min; Stability (Plasma [26]): 65%; Drug uptake (Heart [27]): 0.187 % ID/g; Drug uptake [28]: Active; remaining at 0.25 h [29]: 75%; Drug uptake (Rattus norvegicus [30]): 0.242 % ID/g; Drug uptake (Blood [31]): 0.268 % ID/g; Ratio (Nucleic Acid): 3.8; Drug uptake (Kidney [32]): 0.758 % ID/g; Drug uptake (Frontal cortex): Active; Drug uptake (Muscle tissue [33]): 0.258 % ID/g; Drug uptake (Blood [34]): 0.152 % ID/g; Drug uptake (Lung [35]): 0.163 % ID/g
Cn1cc(-c2ccncc2)c(-c2ccc(OCc3nc4ccccc4cc3O[11CH3])cc2)n1 | 0.408 % ID/g | 6.398 % ID/g | 0.064 % ID/g | 0.452 % ID/g | 0.257 % ID/g | 7.345 % ID/g | 11.005 % ID/g | 5% | 0.128 % ID/g | Active | 0.097 % ID/g | 0.34 % ID/g | 3 min | Active | 0.488 % ID/g | 1.353 % ID/g | 0.199 % ID/g | Active | 4.354 % ID/g | 5.781 % ID/g | Drug uptake (Heart [19]): 0.733 % ID/g; Drug uptake (Blood [20]): 0.407 % ID/g; Drug uptake (Rattus norvegicus [21]): 0.851 % ID/g; Drug uptake (Rattus norvegicus [22]): 0.5 % ID/g; Drug uptake (Muscle tissue [23]): 0.142 % ID/g; Stability [24]: 25%; Retention_time (Plasma [25]): 8 min; Stability (Plasma [26]): 65%; Drug uptake (Heart [27]): 0.296 % ID/g; Drug uptake [28]: Active; remaining at 0.25 h [29]: 87%; Drug uptake (Rattus norvegicus [30]): 0.935 % ID/g; Drug uptake (Blood [31]): 0.679 % ID/g; Ratio (Nucleic Acid): 4.6; Drug uptake (Kidney [32]): 1.275 % ID/g; Drug uptake (Frontal cortex): Active; Drug uptake (Muscle tissue [33]): 0.412 % ID/g; Drug uptake (Blood [34]): 0.275 % ID/g; Drug uptake (Lung [35]): 0.299 % ID/g
